Results on three molecules are retold here after patent US20080131511A1, “Pharmaceutical Composition for Treatment of Tear and Salivary Fluid Drying” (Astellas Pharma, Inc., priority 2004, published 2008).

The subject of one data set is lacrimal gland. Description: Tear fluid secretion during subcutaneous continuous administration (osmotic pump). The data set is classed as in vivo, mouse (male Balb/c). The settings on record: mice; for Tear fluid: AUC of secreted amount. As to the method: (§1) Male Balb/c mice were used in the test.
(§2) The compound A was dissolved in physiological saline to a concentration of 0.625, 1.25, 2.5, 5.0, 10 or 20 mg/200 μl, and filled each pump (Alzet mini-osmotic pump 2001D, 8 μl/h, 1 day; DURECT Corporation) with about 200 μl portions It means, that is, each pump releases at a rate of 0.025, 0.05, 0.1, 0.2, 0.4 or 0.8 mg compound A/h, respectively. About 5 mm of dorsal epidermis of a mouse anesthetized with diethyl ether was incised, the osmotic pump already filled with the compound A was subcutaneously implanted, and then the skin was stitched. Secreted amounts of salivary and tear fluid and sweating were periodically measured from just before the implantation of pump until 32 hours after the administration. The ornithine decarboxylase activity was measured 10 hours after the implantation.
Pilocarpine was dissolved in physiological saline to a concentration of 0.039, 0.078, 0.16 or 0.31 mg/200 μl, or cevimeline to a concentration of 0.16, 0.31, 0.63 or 1.3 mg/200 μl, and filled the osmotic pump (Alzet mini-osmotic pump 2001 D, 8 μl/h, 1 day; DURECT Corporation) with about 200 μl portions. It means, that is, each pump releases at a rate of 0.00156, 0.00312, 0.0064 or 0.0124 mg/h (pilocarpine) or 0.0064, 0.0124, 0.0252 or 0.05 mg/h (cevimeline). About 5 mm of dorsal epidermis of a mouse anesthetized with diethyl ether was incised, the osmotic pump already filled with pilocarpine or cevimeline was subcutaneously implanted, and then the skin was stitched. Secreted amounts of salivary and tear fluid and sweating were periodically measured from just before the implantation of pump until 32 hours after the administration. The ornithine decarboxylase activity was measured 10 hours after the implantation.
The mouth of a mouse was wiped with a cotton ball whose weight had been measured in advance, and the incremental weight was used as the amount of salivary fluid. Also at the same time, a thread for tear fluid measurement (Zone Quick; Menicon) used on the Schirmer test was inserted into the lower eyelid conjunctival sac, and the length of colored part was measured and used as the amount of tear fluid. From the measurement results, area under the secreted amount-versus-time curve (AUC) was calculated.
(§3) All of the test results were expressed as fold increases of the reactions of the drug-administered group versus those of the vehicle-administered group, and comparison between the drug-administered groups and the vehicle-administered group was carried out using Dunnett's t-test. P<0.05 was considered significant. Results

The subject of the next data set is sweat gland. The data set is described as follows: Sweating (activated sweat glands, AUC) during subcutaneous continuous administration (osmotic pump). The data set is classed as in vivo, mouse (male Balb/c). The settings on record: for sweating: AUC of activated sweat glands. As to the method: as §1
as §2, with “implantation. […]” for “implantation.”
The footpad of right hind paw of a mouse anesthetized with diethyl ether was wiped with absorbent cotton, and then 20 μl of each of 5 mg/ml iodine-ethanol solution and 50 mg/ml starch-mineral oil suspension was applied thereto. The number of black spots on footpad was counted and used as the number of activated sweat glands. In the case of the subcutaneous bolus administration test, the number of activated sweat glands 10 minutes after the administration of compound A was measured. In the case of the subcutaneous continuous administration, area under the number of activated sweat glands-versus-time curve (AUC) was calculated.
as §3

The subject of data set [1] is healthy male adult volunteers. The data set is described as follows: Phase I study, single oral administration: saliva secretion. The settings on record: for Increase of saliva secretion (number of subjects with the symptom): healthy male adult volunteers, 6 subjects. The data set is classed as in vivo, human. As to the method: (§4) The compound A was orally administered once to healthy male adult volunteers, and saliva secretion action and pharmacokinetics were evaluated.
(§5) Drug administration to the volunteers was carried out by a blind method.
(§6) In order to observe the volunteers carefully, saliva quantity, sweating and pharmacokinetics (concentrations of unchanged compound A in plasma and urine) were periodically measured.

For data set [2], the system named is healthy male adult volunteers. Description: Phase I study, single oral administration: sweating. In kind it is in vivo, human. The settings on record: for Sweating (number of subjects with the symptom): healthy male adult volunteers, 6 subjects. As to the method:
as §4, §5, §6

Setting [3] is: s.c. osmotic pump 0.16 mg (0.0064 mg/h).
The mark [4] stands for this setting: s.c. osmotic pump 0.31 mg (0.0124 mg/h).
Setting [5] is: male, Balb/c, mouse, in vivo, sc.
Setting [6] is: mice, s.c. continuous administration.
The mark [7] stands for this setting: phase I study, oral administration.

Regarding `CC1OC2(CS1)CN1CCC2CC1` (stereo not shown) [cevimeline], the Tear fluid was 1.3 ± 0.05 fold increase vs. the solvent group in the data set with lacrimal gland (setting [3]), 1.1 ± 0.09 fold increase vs. the solvent group in the data set with lacrimal gland (setting [4]), 1.4 ± 0.18 fold increase vs. the solvent group in the data set with lacrimal gland (s.c. osmotic pump 0.63 mg (0.0252 mg/h)) and 1.3 ± 0.04 fold increase vs. the solvent group in the data set with lacrimal gland (s.c. osmotic pump 1.25 (0.05 mg/h)). Besides, in the data set on sweat gland (setting [5]), the “dose at which sweating acceleration action was found” value was 1.25 mg. Also, in the data set on sweat gland (setting [5]), the “sweating acceleration dose relative to dose for secretion acceleration” value was 2 times.
With `CC[C@@H]1C(=O)OC[C@@H]1Cc1cncn1C` [pilocarpine], the Tear fluid with lacrimal gland (s.c. osmotic pump 0.039 mg (0.00156 mg/h)) is 0.81 ± 0.02 fold increase vs. vehicle group; in the data set with lacrimal gland (s.c. osmotic pump 0.078 mg (0.00312 mg/h)) it was 1.1 ± 0.13 fold increase vs. vehicle group; with lacrimal gland (setting [3]) it was 1.1 ± 0.14 fold increase vs. vehicle group; in the data set on lacrimal gland (setting [4]), 1.1 ± 0.12 fold increase vs. vehicle group. Further, in the data set with sweat gland (setting [5]), the “dose at which sweating acceleration action was found” value came out at 0.31 mg.
`C=C1CC2(CCN(C)CC2)O[C@H]1C` [compound A, (−)-(S)-2,8-dimethyl-3-methylene-1-oxa-8-azaspiro[4.5]decane]: the “dose at which tear fluid secretion acceleration action reached maximum” value in the data set with lacrimal gland (s.c. continuous administration) was 5 mg. Moreover, the “dose showing statistically significant tear fluid secretion acceleration” value in the data set with lacrimal gland (s.c. continuous administration, cumulative quantity vs vehicle group) is at least 2.5 mg. For the same molecule, the Tear fluid with lacrimal gland (s.c. osmotic pump 0.63 mg (0.025 mg/h)) was 1.3 ± 0.11 fold increase vs. the vehicle group; with lacrimal gland (s.c. osmotic pump 1.25 mg (0.05 mg/h)) it was 1.3 ± 0.011 fold increase vs. the vehicle group; with lacrimal gland (s.c. osmotic pump 2.5 mg (0.1 mg/h)), 1.9 ± 0.10 fold increase vs. the vehicle group; in the data set on lacrimal gland (s.c. osmotic pump 5 mg (0.2 mg/h)), 2.3 ± 0.08 fold increase vs. the vehicle group; in the data set on lacrimal gland (s.c. osmotic pump 10 mg (0.4 mg/h)), 1.6 ± 0.08 fold increase vs. the vehicle group. Moreover, in the data set on sweat gland (setting [6]), the “dose at which sweating acceleration action was found” value came out at 20 mg. Besides, the “sweating acceleration dose relative to dose for secretion acceleration” value in the data set with sweat gland (setting [6]) was 8 times. In addition, in the data set on sweat gland (mice, s.c. continuous administration, throughout the test period), the “dose up to which sweating acceleration action was not found” value came to 10 mg. For the same molecule, the sweating is on record as 0.85 ± 0.06 fold increase vs. the vehicle group in the data set on sweat gland (mice, s.c. osmotic pump 0.63 mg (0.025 mg/h)); 0.84 ± 0.06 fold increase vs. the vehicle group with sweat gland (mice, s.c. osmotic pump 1.25 mg (0.05 mg/h)); 0.89 ± 0.05 fold increase vs. the vehicle group with sweat gland (mice, s.c. osmotic pump 2.5 mg (0.1 mg/h)); 0.88 ± 0.05 fold increase vs. the vehicle group with sweat gland (mice, s.c. osmotic pump 5 mg (0.2 mg/h)); 0.90 ± 0.04 fold increase vs. the vehicle group in the data set on sweat gland (mice, s.c. osmotic pump 10 mg (0.4 mg/h)); 1.7 ± 0.07 fold increase vs. the vehicle group in the data set on sweat gland (mice, s.c. osmotic pump 20 mg (0.8 mg/h)). Further, the “Increase of saliva secretion (number of subjects with the symptom)” value in data set [1] (single oral 5 mg) came out at 0; in data set [1] (single oral 10 mg), 2; in data set [1] (single oral 20 mg), 2; in data set [1] (single oral 60 mg) it was 5. Further, in data set [1] (setting [7]), the “minimum dose by which increase of the salivary fluid secretion was observed” value came to 10 mg. For the same molecule, the “Sweating (number of subjects with the symptom)” value in data set [2] (single oral 5 mg) came to 0; in data set [2] (single oral 10 mg), 1; in data set [2] (single oral 20 mg), 0; in data set [2] (single oral 40 mg), 0; in data set [2] (single oral 60 mg), 5. Also, in data set [2] (human clinical test), the “dose at which a side effect was found” value came to 60 mg/individual. Besides, the “dose at which a side effect was not found” value in data set [2] (human clinical test) worked out at 40 mg/individual. Moreover, the “maximum dose (single administration) by which sweating was not observed but the beneficial effect was observed” value in data set [2] (setting [7]) stood at 40 mg.
